The source of these data is US20050054589A1, “Method for treating diseases using HSP90-inhibiting agents in combination with antibiotics” (Kosan Biosciences, Inc., priority 2003, published 2005).

Molecules are shown by their SMILES.

The conditions of data set [1]: clinical trials; twice-weekly regimen; cited from earlier work.
Data set [2] has as its system SKBr cells (human breast cancer cells). As to the kind of experiment: Cell viability (MTS) drug combination assay, combination index, SKBr-3 cells. The note with it: constant ratio of IC50s, CI<1 synergism. The class given is cell-based. Here is the method:
(§1) Human colon adenocarcinoma cell line, DLD-1, and human breast adenocarcinoma cell line, SKBr-3, were obtained from American Type Culture Collection (manassas, VA). DLD-1 cells were maintained in RPMI 1640 medium supplemented with 10% fetal bovine serum, and SKBr-3 cells were cultured in McCoy's 5a medium supplemented with 10% fetal bovine serum. 17-DMAG and 17-AAG were obtained using published procedures. Other cytotoxic agents were purchased commercially from suppliers such as Sigma Chemical Co. (St. Louis, Mo.) and Sequoia Research Products (Oxford, UK).
(§2) Cells were seeded in duplicate in 96-well microtiter plates at a density of 5,000 cells per well and allowed to attach overnight. […] Cell viability was determined using the MTS assay (Promega). For the drug combination assay, cells were seeded in duplicate in 96-well plates (5,000 cells/well). […] Cell viability was determined by the MTS assay.
(§3) Synergism, additivity or antagonism was determined by median effect analysis using the combination index (CI) calculated using Calcusyn (Biosoft, Cambridge, UK). […] The quantities [Dx]1 and [Dx]2 represent the concentrations of the first and second drug, respectively, that when used alone provide a response of x % in the assay. […] The “enhancing” effect of two drugs can also be determined.

The subject of data set [3] is DLD-1 cells (human colorectal cancer cells). Conditions: constant ratio of IC50s, CI<1 synergism, CI=1 additivity, CI>1 antagonism. Here is the method:
as §1, §2, §3

Where [4] appears, read: 17-AAG 24 h before antibiotic, then 48 h.
Where [5] appears, read: antibiotic alone 24 h, then 17-AAG for 48 h.

On to `C=CCNC1=C2C[C@@H](C)C[C@H](OC)[C@H](O)[C@@H](C)/C=C(\C)[C@H](OC(N)=O)[C@@H](OC)/C=C\C=C(/C)C(=O)NC(=CC1=O)C2=O` [17-AAG, 17-(allylamino)-17-desmethoxygeldanamycin], for which the MTD entry in data set [1] is on record as “about 220 mg/m2”.
For `COc1cccc2c1C(=O)c1c(O)c3c(c(O)c1C2=O)C[C@@](O)(C(=O)CO)C[C@@H]3O[C@H]1C[C@H](N)[C@H](O)[C@H](C)O1` [Doxorubicin, doxorubicin], the “CI value, combination with 17-AAG, 17-AAG Pre-Administration” value in data set [2] (setting [4]) is 0.81 ± 0.05; in data set [3] (setting [4]), 0.58 ± 0.15. The “CI value, combination with 17-AAG, 17-AAG Post-Administration” value in data set [2] (setting [5]) worked out at 0.45 ± 0.12; in data set [3] (setting [5]) it was 0.82 ± 0.09.
